Patent publication US20090286803A1, “COMBINATION COMPRISING A) A PYRIMIDYLAMINOBENZAMIDE COMPOUND, AND B) A THR315LLE KINASE INHIBITOR” (priority 2006, published 2009)

Experiments:
mutant forms of Bcr-Abl = settings: 33 mutant forms evaluated
Thr315lle Bcr-Abl = settings: only mutant of the 33 not inhibited

## Cc1cn(-c2cc(NC(=O)c3ccc(C)c(Nc4nccc(-c5cccnc5)n4)c3)cc(C(F)(F)F)c2)cn1 [AMN107, 4-Methyl-3-[[4-(3-pyridinyl)-2-pyrimidinyl]amino]-N-[5-(4-methyl-1H-imidazol-1-yl)-3-(trifluoromethyl)phenyl] benzamide]
Mutant forms of Bcr-Abl
  mutant forms of Bcr-Abl inhibited, out of those currently evaluated: 32 of 33
Thr315lle Bcr-Abl
  sensitivity of the Thr315lle mutant: resistant
